Work on `O=C1CCc2c(OCC3(O)CCN(c4ccc(OCc5ccccc5)cc4F)CC3)ccc(F)c2N1` yielded a melting point of 193 °C. In the case of `CCOCc1ccc(N2CCC(O)(COc3ccc(F)c4c3CCC(=O)N4)CC2)c(F)c1`, the melting point is reported as 154.2 to 154.5 °C. In the case of `O=C1CCc2ccc(OCC3(O)CCN(c4ccc(Cl)cc4F)CC3)cc2N1`, the melting point is reported as 207.8 to 208.7 °C. With `O=C1CCc2cc(OCC3(O)CCN(c4ccc(Cl)cc4F)CC3)ccc2N1` the melting point was 219.1 to 220 °C. `Cc1cc(N2CCC(O)(COc3ccc(Cl)c4c3CCC(=O)N4)CC2)c(F)cc1Cl` gave a melting point of 212.2 to 213.1 °C. For `O=c1ccc2c(OCC3(O)CCN(c4ccc(Cl)cc4F)CC3)ccc(F)c2[nH]1`, the melting point was 255 to 256 °C. `O=C1CCc2c(OCC3(O)CCN(c4ncc(C(F)(F)F)cc4Cl)CC3)ccc(F)c2N1` gave a melting point of 172.5 to 172.7 °C. `O=C1CCc2c(OCC3(O)CCN(c4cc(OCCF)c(Cl)cc4F)CC3)ccc(Cl)c2N1` gave a melting point of 223 to 223.3 °C. With `O=C1CCc2c(OCC3(O)CCN(c4cc(OCC(F)(F)F)c(Cl)cc4F)CC3)ccc(F)c2N1` the melting point was 200.6 to 201 °C. Work on `O=C1CCc2c(OCC3(O)CCN(c4c(F)cc(OC(F)F)cc4F)CC3)ccc(F)c2N1` yielded a melting point of 172.6 to 172.7 °C. `O=C1CCc2c(OCC3(O)CCN(c4c(F)cc(OC(F)F)cc4F)CC3)ccc(Cl)c2N1` gave a melting point of 143.6 to 143.7 °C. Work on `COc1cc(N2CCC(O)(COc3ccc(F)c4c3CCC(=O)N4)CC2)c(F)cc1Cl` yielded a melting point of 232.4 to 232.5 °C. For `O=C1CCc2c(OCC3(O)CCN(c4ncc(Br)cc4F)CC3)ccc(F)c2N1`, the melting point was 197.4 to 203.9 °C. `O=C1CCc2c(OCC3(O)CCN(c4cc5c(cc4F)OC(F)(F)O5)CC3)ccc(Cl)c2N1` showed a melting point of 213.4 to 213.5 °C. Work on `O=C1CCc2c(OCC3(O)CCN(c4ccc(Cl)cn4)CC3)ccc(F)c2N1` yielded a melting point of 192 to 192.3 °C. Work on `CCOc1cc(N2CCC(O)(COc3ccc(Cl)c4c3CCC(=O)N4)CC2)c(F)cc1F` yielded a melting point of 182.1 to 182.4 °C. Work on `COc1cc(N2CCC(O)(COc3ccc(Cl)c4c3CCC(=O)N4)CC2)c(F)cc1F` yielded a melting point of 191.4 to 191.7 °C. For `O=C1CCc2c(OCC3(O)CCN(c4c(F)cc(Br)cc4F)CC3)ccc(F)c2N1`, the melting point was 217.7 to 217.9 °C. In the case of `O=C1CCc2c(OCC3(O)CCN(c4cc(CCOc5ccc(F)cc5)c(Cl)cc4F)CC3)ccc(F)c2N1`, the melting point is reported as 156 to 156.1 °C. Work on `CCCc1cc(N2CCC(O)(COc3ccc(F)c4c3CCC(=O)N4)CC2)c(F)cc1F` yielded a melting point of 184.7 to 184.8 °C. In the case of `O=C1CCc2c(OCC3(O)CCN(c4c(F)cc(OCC(F)(F)F)cc4F)CC3)ccc(F)c2N1`, the melting point is reported as 189.8 to 189.9 °C. With `O=C1CCc2c(OCC3(O)CCN(c4cc5c(cc4F)OC(F)(F)O5)CC3)cc(F)c(F)c2N1` the melting point was 258.9 to 259 °C (dec.). With `O=C1CCc2c(OCC3(O)CCN(c4c(F)cc(Br)cc4F)CC3)cc(F)c(F)c2N1` the melting point was 233.1 to 233.2 °C. In the case of `O=C1CCc2c(OCC3(O)CCN(c4ccc5c(c4)OC(F)(F)O5)CC3)ccc(F)c2N1`, the melting point is reported as 198.4 to 198.5 °C. With `O=C1CCc2c(OC[C@]3(O)CCN(c4c(F)cc(Cl)cc4F)C[C@H]3O)cc(F)c(F)c2N1` the melting point was 199 to 201 °C. Work on `O=C1CCc2c(OC[C@]3(O)CCN(c4ccc(F)cc4Cl)C[C@H]3O)cc(F)c(Cl)c2N1` yielded a melting point of 175.7 to 177 °C. With `O=C1CCc2c(OC[C@]3(O)CCN(c4cc(F)c(Cl)cc4F)C[C@H]3O)ccc(F)c2N1` the melting point was 199 to 199.7 °C. With `O=C1CCc2c(OC[C@]3(O)CCN(c4ccc(F)cc4Cl)C[C@H]3O)cc(F)c(F)c2N1` the melting point was 192.2 to 193.2 °C. Work on `O=C1CCc2c(OC[C@]3(O)CCN(c4cc(Cl)c(F)cc4Cl)C[C@H]3O)ccc(Cl)c2N1` yielded a melting point of 237.7 to 238.6 °C. For `O=C1CCc2c(OC[C@]3(O)CCN(c4cc(F)c(Cl)cc4Cl)C[C@H]3O)ccc(Cl)c2N1`, the melting point was 180.2 to 180.6 °C. Work on `O=C1CCc2c(OC[C@]3(O)CCN(c4ccc(OC(F)(F)F)cc4F)C[C@H]3O)ccc(F)c2N1` yielded a melting point of 161.6 to 161.9 °C. `O=C1CCc2c(OC[C@]3(O)CCN(c4ccc(OC(F)(F)F)cc4)C[C@H]3O)ccc(F)c2N1` showed a melting point of 196 to 197.1 °C. Work on `O=C1CCc2c(OC[C@]3(O)CCN(c4nc5ccc(Cl)cc5o4)C[C@H]3O)ccc(F)c2N1` yielded a melting point of 219 to 220 °C. With `CCCOc1cc(F)c(N2CC[C@@](O)(COc3ccc(F)c4c3CCC(=O)N4)[C@H](O)C2)c(F)c1` the melting point was 194.8 to 195 °C. For `CCCCOc1cc(F)c(N2CC[C@@](O)(COc3ccc(F)c4c3CCC(=O)N4)[C@H](O)C2)c(F)c1`, the melting point was 185.8 to 186.2 °C. `O=C1CCc2c(OC[C@@]3(O)CCN(c4ccc(Br)cc4F)C[C@H]3O)ccc(F)c2N1` showed a melting point of 194.7 to 194.8 °C. Molecule `O=c1ccc2c(OC[C@]3(O)CCN(c4c(F)cc(Cl)cc4F)C[C@H]3O)ccc(Cl)c2[nH]1` has a melting point of 228.8 to 229.5 °C. Molecule `O=C1CCc2c(NCC3(O)CCN(c4ccc(F)cc4Cl)CC3)ccc(F)c2N1` has a melting point of 214 to 215 °C. In the case of `O=C1CCc2c(NCC3(O)CCN(c4ccc(Cl)cc4F)CC3)ccc(F)c2N1`, the melting point is reported as 225 to 226 °C. For `CN(CC1(O)CCN(c2ccc(Cl)cc2Cl)CC1)c1ccc(F)c2c1CCC(=O)N2`, the melting point was 156 to 157 °C. `O=C1CCc2c(OCC3(C(=O)O)CCN(c4ncc(Cl)cc4Cl)CC3)ccc(F)c2N1` gave a melting point of 276 to 277 °C. For `COC(=O)NC1(COc2ccc(F)c3c2CCC(=O)N3)CCN(c2ncc(Cl)cc2Cl)CC1`, the melting point was 183 °C. `CC(=O)NC1(COc2ccc(F)c3c2CCC(=O)N3)CCN(c2ncc(F)cc2C#N)CC1` gave a melting point of 237.8 to 238.2 °C. In the case of `O=C1CCc2c(OCC3(O)CCN(c4ccc(F)cc4Cl)CC3)ccc(F)c2N1`, the melting point is reported as 208 °C. With `O=C1CCc2c(OCC3(O)CCN(c4ccc(OC(F)(F)F)cc4)CC3)ccc(F)c2N1` the melting point was 200.7 °C. With `O=C1CCc2c(OCC3(O)CCN(c4cccc(Cl)c4)CC3)ccc(F)c2N1` the melting point was 169 to 170 °C. For `O=C1CCc2c(OCC3(O)CCN(c4cccc(Cl)c4Cl)CC3)ccc(F)c2N1`, the melting point was 228.7 °C. With `O=C1CCc2c(OCC3(O)CCN(c4c(F)cc(Cl)cc4F)CC3)ccc(F)c2N1` the melting point was 225.5 to 225.6 °C. `O=C1CCc2c(OCC3(O)CCN(c4ccc(Cl)cc4C(F)(F)F)CC3)ccc(F)c2N1` gave a melting point of 211.3 to 211.5 °C. `Cc1cc(Cl)ccc1N1CCC(O)(COc2ccc(F)c3c2CCC(=O)N3)CC1` gave a melting point of 214 to 215 °C. `O=C1CCc2c(OCC3(O)CCN(c4ccccc4OC(F)(F)F)CC3)ccc(F)c2N1` gave a melting point of 168 °C. With `CC(C)c1cccc(N2CCC(O)(COc3ccc(F)c4c3CCC(=O)N4)CC2)c1` the melting point was 131.1 to 131.3 °C. In the case of `N#Cc1cccc(N2CCC(O)(COc3ccc(F)c4c3CCC(=O)N4)CC2)c1`, the melting point is reported as 175 to 177 °C. `O=C1CCc2c(OCC3(O)CCN(c4cccc(C(F)(F)F)c4)CC3)ccc(F)c2N1` showed a melting point of 159.4 to 159.5 °C. In the case of `O=C1CCc2c(OCC3(O)CCN(c4ccc(Br)cc4F)CC3)ccc(F)c2N1`, the melting point is reported as 204.8 to 205 °C. `CCc1ccc(N2CCC(O)(COc3ccc(F)c4c3CCC(=O)N4)CC2)c(Cl)c1` gave a melting point of 167.8 to 168 °C. `CCCCOc1ccc(N2CCC(O)(COc3ccc(F)c4c3CCC(=O)N4)CC2)c(F)c1` gave a melting point of 193.2 to 193.5 °C. `O=C1CCc2c(OCC3(O)CCN(c4c(F)cc(F)cc4Cl)CC3)ccc(F)c2N1` gave a melting point of 239.3 to 239.6 °C. In the case of `O=C1CCc2c(OCC3(O)CCN(c4ccc(OC(F)(F)F)cc4F)CC3)ccc(F)c2N1`, the melting point is reported as 174.2 to 174.3 °C.
